Each block holds one compound with its values, some of them ahead of it. The source made the active and inactive calls. The calls are words filed in the database; no cut-off is given here.
Assays:
BXPC-3 [1] = assay: Effect on total EGFR protein levels in overnight serum-starved human BxPC3 cells at 40 to 60 uM by Western blotting analysis; type: ADME, cell-based; conditions: bxpc-3, 60 µM
[2] = target: T1, Son of sevenless homolog 1 (Homo sapiens) (UniProt Q07889); assay: Inhibition of SOS1 in overnight serum-starved human BxPC3 cells assessed as reduction in ERK phosphorylation at 40 to 60 uM incubated for 2 hrs by Western blotting analysis
T1 sequence (whole entry): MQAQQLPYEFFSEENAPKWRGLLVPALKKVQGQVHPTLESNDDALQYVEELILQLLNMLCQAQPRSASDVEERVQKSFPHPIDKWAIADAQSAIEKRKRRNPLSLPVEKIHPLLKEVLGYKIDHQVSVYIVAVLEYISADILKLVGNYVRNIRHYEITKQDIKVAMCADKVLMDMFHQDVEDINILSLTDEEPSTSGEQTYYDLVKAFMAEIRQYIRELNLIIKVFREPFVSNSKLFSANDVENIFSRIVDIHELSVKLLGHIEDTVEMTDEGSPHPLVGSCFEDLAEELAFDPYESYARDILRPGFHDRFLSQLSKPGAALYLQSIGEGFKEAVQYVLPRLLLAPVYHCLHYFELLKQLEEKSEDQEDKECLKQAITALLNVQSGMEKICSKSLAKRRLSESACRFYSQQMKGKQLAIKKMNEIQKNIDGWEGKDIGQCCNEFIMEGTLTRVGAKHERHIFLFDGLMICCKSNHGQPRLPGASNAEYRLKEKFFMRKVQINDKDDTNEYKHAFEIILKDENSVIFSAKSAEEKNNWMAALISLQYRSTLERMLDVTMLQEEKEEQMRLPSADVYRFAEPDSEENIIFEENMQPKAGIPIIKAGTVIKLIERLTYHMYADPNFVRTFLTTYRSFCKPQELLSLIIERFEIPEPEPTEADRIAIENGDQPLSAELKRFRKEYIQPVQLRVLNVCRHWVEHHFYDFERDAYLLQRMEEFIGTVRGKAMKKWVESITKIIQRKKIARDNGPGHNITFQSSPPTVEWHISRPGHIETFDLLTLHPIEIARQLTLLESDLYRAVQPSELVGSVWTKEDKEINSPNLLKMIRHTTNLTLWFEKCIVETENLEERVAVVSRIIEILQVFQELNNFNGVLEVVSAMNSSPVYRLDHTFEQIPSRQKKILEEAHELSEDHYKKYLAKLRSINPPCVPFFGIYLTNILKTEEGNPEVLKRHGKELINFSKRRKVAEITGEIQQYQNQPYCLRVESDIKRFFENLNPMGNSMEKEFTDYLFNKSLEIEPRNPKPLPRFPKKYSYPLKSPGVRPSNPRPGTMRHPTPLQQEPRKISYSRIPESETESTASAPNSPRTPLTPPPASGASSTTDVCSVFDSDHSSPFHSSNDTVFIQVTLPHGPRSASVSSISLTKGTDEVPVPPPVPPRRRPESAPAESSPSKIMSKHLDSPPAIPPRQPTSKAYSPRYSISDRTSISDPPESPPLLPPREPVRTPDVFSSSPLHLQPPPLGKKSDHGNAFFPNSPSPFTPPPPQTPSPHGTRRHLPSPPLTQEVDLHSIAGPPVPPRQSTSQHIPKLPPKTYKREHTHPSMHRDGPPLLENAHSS

BXPC-3 [3] = assay: Effect on GADPH protein levels in overnight serum-starved human BxPC3 cells at 40 to 60 uM by Western blotting analysis; type: ADME, cell-based; conditions: bxpc-3, 60 µM
[4] = target: T2, Son of sevenless homolog 1 (Mus musculus) (UniProt Q62245); assay: Inhibition of SOS1 in overnight serum-starved mouse NIH/3T3 cells assessed as reduction in cell proliferation at 20 to 50 uM incubated for 3 days and measured every 24 hrs by MTS assay
T2 sequence (whole entry): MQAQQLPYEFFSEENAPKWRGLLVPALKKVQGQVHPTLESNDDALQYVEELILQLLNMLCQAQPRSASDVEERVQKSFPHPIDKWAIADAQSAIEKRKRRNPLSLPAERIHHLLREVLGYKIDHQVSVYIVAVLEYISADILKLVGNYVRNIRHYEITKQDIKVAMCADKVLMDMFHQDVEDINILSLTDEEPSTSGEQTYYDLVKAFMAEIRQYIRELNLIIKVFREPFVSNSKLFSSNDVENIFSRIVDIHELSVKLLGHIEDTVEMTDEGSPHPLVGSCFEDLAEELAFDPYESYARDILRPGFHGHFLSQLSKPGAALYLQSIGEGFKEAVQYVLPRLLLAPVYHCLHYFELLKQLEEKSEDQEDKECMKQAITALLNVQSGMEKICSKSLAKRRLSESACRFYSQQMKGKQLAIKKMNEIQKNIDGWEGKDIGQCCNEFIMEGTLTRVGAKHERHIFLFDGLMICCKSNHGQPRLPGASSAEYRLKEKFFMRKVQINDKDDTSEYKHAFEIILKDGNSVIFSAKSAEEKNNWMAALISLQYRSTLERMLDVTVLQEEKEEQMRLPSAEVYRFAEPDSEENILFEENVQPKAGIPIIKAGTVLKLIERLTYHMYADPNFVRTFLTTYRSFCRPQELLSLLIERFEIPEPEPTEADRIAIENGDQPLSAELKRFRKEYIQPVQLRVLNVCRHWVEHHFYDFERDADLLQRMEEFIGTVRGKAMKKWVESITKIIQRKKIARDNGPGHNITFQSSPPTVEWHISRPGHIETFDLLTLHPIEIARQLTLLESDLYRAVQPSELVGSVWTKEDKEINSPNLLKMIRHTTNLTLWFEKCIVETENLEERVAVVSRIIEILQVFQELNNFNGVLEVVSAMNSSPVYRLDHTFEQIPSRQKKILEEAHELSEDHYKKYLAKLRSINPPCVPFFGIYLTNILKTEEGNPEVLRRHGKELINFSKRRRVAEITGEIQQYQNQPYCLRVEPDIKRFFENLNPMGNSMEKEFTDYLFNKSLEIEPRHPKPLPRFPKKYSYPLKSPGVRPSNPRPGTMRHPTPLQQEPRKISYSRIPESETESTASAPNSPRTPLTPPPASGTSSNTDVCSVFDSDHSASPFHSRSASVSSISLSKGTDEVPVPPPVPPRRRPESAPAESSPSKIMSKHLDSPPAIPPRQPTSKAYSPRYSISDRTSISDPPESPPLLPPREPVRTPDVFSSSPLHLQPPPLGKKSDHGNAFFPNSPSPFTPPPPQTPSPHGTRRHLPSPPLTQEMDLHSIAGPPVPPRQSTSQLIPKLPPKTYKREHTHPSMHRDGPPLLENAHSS

[5] = target: T2, Son of sevenless homolog 1 (Mus musculus); assay: Inhibition of SOS1 in overnight serum-starved mouse MEF assessed as reduction in cell proliferation at 10 to 40 uM incubated for 3 days by MTS assay; type: cell-based
OVCAR-3 = assay: Antiproliferative activity against human OVCAR3 cells assessed as reduction in cell number incubated for 48 hrs by MTS assay; type: functional, cell-based
[6] = target: T2, Son of sevenless homolog 1 (Mus musculus); assay: Inhibition of SOS1 in overnight serum-starved mouse NIH/3T3 cells assessed as reduction in cell proliferation at 40 to 80 uM incubated for 3 days and measured every 24 hrs by MTS assay

inhibition [2]: Active
Structure (SMILES): O=[N+]([O-])c1ccccc1/C=C/C=C1c2ccccc2-c2ccccc21
Activity (BXPC-3 [1]): Toxic
Activity (BXPC-3 [3]): Toxic

inhibition [4]: Active
inhibition [5]: Active
Structure (SMILES): O=C1Oc2ccccc2C(=O)/C1=C/N1C(=O)/C(=C/c2ccc([N+](=O)[O-])cc2)SC1=S
Activity (OVCAR-3): Active

inhibition [6]: Active
Structure (SMILES): O=C(O)c1cc2c3c(c1)C1C=CCC1C(c1ccccc1Cl)N3CC1CC=CC21 (configuration not stated)

— ChEMBL document CHEMBL4420078, “Sos1 inhibitors for cancer treatment” (2016)
